# BindingDB's records for patent US12404261 (Novartis, 2025)
# pIC50: −log10 of the molar value.
# Molecular target: Cyclic GMP-AMP synthase (Homo sapiens, UniProt Q8N884)
# Experiment: Biochemical Assay
# Experimental: The enzyme solution was transferred into the reagent buffer to give a final concentration of 30 nM. […] The reaction plates were then centrifuged at 1000 rpm for 1 minute and incubated at room temperature for 1 h.
# Chain of Cyclic GMP-AMP synthase (Q8N884 whole entry): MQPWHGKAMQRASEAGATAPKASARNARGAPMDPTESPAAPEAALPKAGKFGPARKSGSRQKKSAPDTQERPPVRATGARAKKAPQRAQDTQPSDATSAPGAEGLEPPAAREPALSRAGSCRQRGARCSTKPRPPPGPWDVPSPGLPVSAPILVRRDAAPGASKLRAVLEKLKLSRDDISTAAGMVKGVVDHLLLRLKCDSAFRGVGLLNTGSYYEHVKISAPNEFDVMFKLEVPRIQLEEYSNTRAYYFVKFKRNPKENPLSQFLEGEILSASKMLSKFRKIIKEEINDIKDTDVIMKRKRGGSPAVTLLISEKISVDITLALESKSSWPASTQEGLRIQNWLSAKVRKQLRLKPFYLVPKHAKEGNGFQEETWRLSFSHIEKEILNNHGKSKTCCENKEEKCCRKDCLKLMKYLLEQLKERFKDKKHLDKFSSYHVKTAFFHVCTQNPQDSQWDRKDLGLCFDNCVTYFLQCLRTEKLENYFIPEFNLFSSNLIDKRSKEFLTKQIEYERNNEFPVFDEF
row,Compound,pIC50
1,"COc1cc2c(-n3ccnc3)c(-c3nnc(C(CN(C)C)OC)[nH]3)n(C)c2c(F)c1Cl (configuration not stated) [US12404261, Example 97]",6.98
2,"COc1cc2c(-n3ccnc3)c(-c3nnc(C(=O)N(C)C)[nH]3)n(C)c2c(C#N)c1C#N [US12404261, Example 120]",6.76
3,"COCC(C1=NNC(c2c(-n3ccnc3)c3cc(OC)c(Cl)c(F)c3n2C)N1)N1CCOCC1 (configuration not stated) [US12404261, Example 126]",6.39

# Second part, the molecule after the results:
row,pIC50,Compound
1,6.86,"Cn1c(-c2nnc(C(F)(F)F)[nH]2)c(-c2cn[nH]c2)c2ccc(Cl)c(C#N)c21 [US12404261, Example 27]"
2,7.15,"COc1cc2c(-c3cn[nH]c3)c(-c3nnc(C(CN(C)C)OC)[nH]3)n(C)c2c(F)c1Cl (configuration not stated) [US12404261, Example 75]"
3,6.06,"FC(F)(F)c1nnc(-c2[nH]c3cc(Cl)c(OC4CC4)cc3c2-n2ccnc2)[nH]1 [US12404261, Example 113]"
4,7.17,"Cn1c(-c2nnc(C(F)(F)F)[nH]2)c(-n2ccnc2)c2cc(O)c(Cl)cc21 [US12404261, Example 115]"
